How the values were obtained:
[1] = Panel test of smell, 9-hexadecanoic acid at 37° C. (Experiment 6); set-up: key: +++: the same or higher level of odor; ++: slightly lower level of odor; +: clearly lower level of odor than that of the control system; −: odorless; conditions: 3-days of standing, 37° C., 9,000 lux
From the text: (§1) Upon the HSG samples, the level of a body-odor-like smell was examined on a panel test consisting of six professional panels; the panels directly smelled the samples from each glass vial and judged the level of the smells for each samples with test saccharides based on the following four ranks, i.e., the same or higher level of odor (+++), slightly lower level of odor (++), clearly lower level of odor (+), and odorless (−) as compared with the control system. Summing up the data from the panels, the samples tested were totally evaluated.
(§2) One hundred milligrams of 9-hexadecanoic acid as a fatty acid, 500 mg of a cellulose powder, and 1.25 ml of 0.12 M phosphate buffer (pH 6.0) were placed in a 20-ml glass vial. To the glass vial was added 100 mg of either of trehalose, maltitol and sucrose as a test saccharide, followed by sealing with a butyl rubber cap for use as a test system. As a control system, there provided a glass vial with no test saccharide that differed from the test systems only in this point. In both the test- and control-systems, they were respectively provided in doublet.
These glass vials were allowed to stand in a 37° C.-thermostatic-bath under the irradiation of 9,000 lux by a fluorescent lamp. […] After the collection of HSG, the smell from glass vials was evaluated by panel test in accordance with the method in Experiment 2.

healthy volunteer = assay: Test on volunteer: volatile aldehydes collected from worn underwear (Experiment 7); assay type: in vivo, human
Description: The influence of saccharides on the formation of body odor from living bodies by applying trehalose to a healthy volunteer, under the following schedule: After soaking a towel in a 2% (w/w) aqueous trehalose solution, which had been boiled for five minutes and then cooled to about 40° C., at 10:30 a.m. on the day of starting a test, the volunteer as in a test system was allowed to wipe their whole body with the towel squeezed roughly to apply trehalose on the body surface, and made them to spend their daily life as usual after the drying of the applied aqueous trehalose solution. Thereafter, they were made to take a bath at 9 p.m. as usual and allowed to sufficiently wash their whole body including their hair. Just after bathing, a fresh preparation of aqueous trehalose solution was applied on the body surface similarly as above, then after drying the aqueous trehalose solution, they were made to wear an underwear and allowed to spend their daily life. At 5:30 p.m. on the next day after the initiation of the test, their worn underwear was collected, and tested for the presence and the content of volatile aldehydes in the underwear by the following procedures. As a control, on other day, the volunteer was allowed to wear a similar underwear as used in the test system according to the above test system except for replacing the aqueous trehalose solution with water, and then made them to spend their daily life, followed by collecting their underwear and analyzing them by the following procedures similarly as above.
As shown schematically in FIG. 1, an underwear 5 worn by the volunteer in each system was sealed after placed in a sealing vessel 1 immediately after the collection, and the gas in the sealing vessel 1 was pumped by an air pump 3 into a cartridge 4, “Superclean LpDNPH Cartridge”, with a lot No. LpDNPH S10L commercialized by Supelco Inc., Tokyo, Japan, to collect volatile aldehydes through a pipe 2 at ambient temperature of about 20° C., while the gas was continuously circulated through the sealed vessel 1 through the pipe 2 for one hour to collect in the cartridge 4 volatile aldehydes, as DNPH (dinitrophenylhydrazine), contained in the underwear 5. Thereafter, the cartridge 4 was removed and received two milliliters of acetonitrile by passing therethrough, followed by collecting an eluate from the cartridge 4. The collected eluate was analyzed on GC as follows.
“GAS CHROMATOGRAPH GC-14B”, as a GC apparatus produced by Shimadzu Corporation, Tokyo, Japan; and “TC-Wax CAPILLARY COLUMN”, a column for analysis, having 0.53 mm in inner diameter, 25 m in length, and 0.5 μm in thickness, produced by GL Sciences, Inc., Tokyo, Japan, were used. Helium gas was used as a carrier gas at a flow rate of 1 ml/min, and the temperature for a sample injection part was set to 240° C., while keeping a column thermostatic bath temperature at 50° C. for five minutes and then increasing the temperature up to 200° C. at a rate of 5° C./min. Using two microliters of an analysis sample as an injection volume, 1/30 volume of the injected sample was analyzed (split 1:30) by passing through the column for analysis while controlling the flow rate of the carrier gas at the sample injection part and using a hydrogen flame ionization detector for detection. As standard specimens, DNPH derivatives for each 2-nonenal, 2-octenal, hexanal, and nonanal were used and separately analyzed on GC under the conditions shown above. Based on the gas chromatograms from the above analyses, the content (μg) of respective 2-nonenal, 2-octenal. hexanal, and nonanal, collected form the underwears in the test system and control, was determined.

[2] = Panel test of smell, 9-hexadecanoic acid at 37° C. (Experiment 6); set-up: key: +++: the same or higher level of odor; ++: slightly lower level of odor; +: clearly lower level of odor than that of the control system; conditions: 37° C., 9,000 lux
From the text: as §1, §2
These glass vials were allowed to stand in a 37° C.-thermostatic-bath under the irradiation of 9,000 lux by a fluorescent lamp. At 3-days of standing, one of each pair of the vials containing the same composition, and 7-days of standing, the other vial of each resting pair of the vials were transferred to a heat block, which had been preheated to 80° C. and then kept therein for five minutes, followed by analyzing the content of 2-nonenal in HSG in each vial by GC similarly as in Experiment 2. After the collection of HSG, the smell from glass vials was evaluated by panel test in accordance with the method in Experiment 2.

[3] = Panel test of body-odor-like smell, oleic acid heated (Experiment 1); set-up: key: +++: the same or higher level of odor; ++: slightly lower level of odor; +: clearly lower level of odor than that of the control system; conditions: oleic acid heated at 105° C. for one hour; six panels, compared with control system
Description: One hundred milligrams of oleic acid as a fatty acid, 500 mg of cellulose powder, and 1.25 ml of 0.12 M phosphate buffer (pH 6.0) were placed in a 20-ml glass vial. To the glass vial were added 100 mg of either of crystalline trehalose hydrate, crystalline maltitol anhydride, crystalline sorbitol anhydride, crystalline sucrose anhydride, crystalline maltose anhydride, and crystalline neotrehalose hydride as test saccharides (throughout Experiments 1 to 6, these saccharides are designated as “trehalose”, “maltitol”, sorbitol”, “sucrose”, “maltose”, and “neotrehalose”, respectively), followed by sealing the glass vial with a butyl rubber. As a control system, there provided a glass vial, with no a test saccharide, which differed from the test glass vial on this point. These glass vials were heated at 105° C. for one hour, cooled to ambient temperature, and kept in an aluminum heat-block (abbreviated as “heat block, hereinafter”), which had been preheated to 80° C. After 5-minutes standing, two milliliters of a head space gas (abbreviated as “HSG”, hereinafter) were collected from each glass vial with a syringe.
as §1

Structure (SMILES)	Evaluation of panel test [1]	Content of volatile aldehydes collected from underwear, 2-Nonenal (healthy volunteer; 2% (w/w) aqueous trehalose solution applied on the body surface, control 7.05) [µg]	Content of volatile aldehydes collected from underwear, Hexanal (healthy volunteer; 2% (w/w) aqueous trehalose solution on the body surface, control 5.39, * means no detection)	Content of volatile aldehydes collected from underwear, 2-Octenal (healthy volunteer; 2% (w/w) aqueous trehalose solution on the body surface, control 8.61, * means no detection)	Content of volatile aldehydes collected from underwear, Nonanal (healthy volunteer; 2% (w/w) aqueous trehalose solution on the body surface, control 10.93, * means no detection)	2-nonenal in underwear, level relative to control (healthy volunteer; trehalose applied on the body surface versus water control)	Evaluation of panel test ([2]; 7-days of standing)	Evaluation of panel test [3]	formation of body odor (healthy volunteer; experiment using maltitol in place of trehalose)	Evaluation of panel test ([2]; 3-days of standing)
OC[C@H]1O[C@H](O[C@H]2O[C@H](CO)[C@@H](O)[C@H](O)[C@H]2O)[C@H](O)[C@@H](O)[C@@H]1O [Trehalose, trehalose]	−	3.72	undetectable level	undetectable level	undetectable level	about 53%	+	+		
OC[C@@H](O)[C@@H](O[C@H]1O[C@H](CO)[C@@H](O)[C@H](O)[C@H]1O)[C@H](O)[C@@H](O)CO [Maltitol, maltitol]	−						+	++	well inhibits the formation of body odor similarly as trehalose	
OC[C@H]1O[C@@](CO)(O[C@H]2O[C@H](CO)[C@@H](O)[C@H](O)[C@H]2O)[C@@H](O)[C@@H]1O [Sucrose, sucrose]							+++	+++		++
